Assay results from article PMC8217813, “Bridging Computational Vaccinology and Vaccine Development Through Systematic Identification, Characterization, and Downselection of Conserved and Variable Circumsporozoite Protein CD4 T Cell Epitopes From Diverse Plasmodium falciparum Strains” (Frontiers in Immunology, 2021).
Peptide text beside a SMILES is read from it.

Target: T1, HLA A*0301 (Homo sapiens, UniProt P04439)
T1 construct: Pure Protein, LLC (ran the assay)
Assay: In vitro class I HLA binding competition assay (fluorescence polarization)
Conditions: not given

Compound	IC50 [µM]
CC[C@H](C)[C@H](NC(=O)[C@@H](N)CCCNC(=N)N)C(=O)N[C@@H](CCCCN)C(=O)N1CCC[C@H]1C(=O)NCC(=O)N[C@@H](CO)C(=O)N[C@@H](C)C(=O)N[C@@H](CC(=O)O)C(=O)N[C@@H](CCCCN)C(=O)O [Cluster 345_CVX79] (H-RIKPGSADK-OH)	17.7
CC[C@H](C)[C@H](NC(=O)[C@@H](N)CCCNC(=N)N)C(=O)N[C@@H](CCCCN)C(=O)N1CCC[C@H]1C(=O)NCC(=O)N[C@@H](CO)C(=O)N[C@@H](C)C(=O)N[C@@H](CC(N)=O)C(=O)N[C@@H](CCCCN)C(=O)O [Cluster 345_3D7] (H-RIKPGSANK-OH)	21.3
CC[C@H](C)[C@H](NC(=O)[C@H](CC(=O)O)NC(=O)[C@H](CC(N)=O)NC(=O)[C@H](C)NC(=O)[C@H](Cc1ccc(O)cc1)NC(=O)[C@H](CC(=O)O)NC(=O)[C@H](CC(C)C)NC(=O)[C@@H](N)CCC(=O)O)C(=O)N[C@@H](CCC(=O)O)C(=O)N[C@@H](CCCCN)C(=O)O [Cluster 357_3D7] (H-ELDYANDIEK-OH)	556
CC(C)C[C@H](NC(=O)[C@@H](N)CCCCN)C(=O)N[C@@H](CCCNC(=N)N)C(=O)N[C@@H](CCCCN)C(=O)N1CCC[C@H]1C(=O)N[C@@H](CCCCN)C(=O)N[C@@H](Cc1c[nH]cn1)C(=O)N[C@@H](CCCCN)C(=O)N[C@@H](CCCCN)C(=O)O [CL1-61]	3.06

Same assay, conditions: allele A0301; cell-free competition with fluorescently labeled control peptide, fluorescence polarization at 72 hours

Compound	IC50 (nM)
IEKKICKMEK [Cluster 364_3D7]	Non-Binder
KHIKEYLNK [Cluster 314_3D7]	Non-Binder
VTCGNGIQV [Cluster 336_3D7]	Non-Binder
CC[C@H](C)[C@H](NC(=O)[C@H](CC(=O)O)NC(=O)[C@H](CC(N)=O)NC(=O)[C@H](CCC(=O)O)NC(=O)[C@H](Cc1ccc(O)cc1)NC(=O)[C@H](CC(=O)O)NC(=O)[C@H](CC(C)C)NC(=O)[C@@H](N)CCC(N)=O)C(=O)N[C@@H](CCC(=O)O)C(=O)N[C@@H](CCCCN)C(=O)O [Cluster 357_CVX89] (H-QLDYENDIEK-OH)	Non-Binder
QLDYANDIEK [Cluster 357_CVX111]	Non-Binder
NANPNANPNK [Cluster 265_3D7]	Non-Binder
LDYANDIEK [Cluster 358_3D7]	Non-Binder

Target: T2, HLA A*0101 (Homo sapiens, UniProt P04439, A114D/A174V/A182V/D101N/D185E/E176A/E190D/L180R/Q94H/R68K/S129P/T187R/V100A/V91M/W191G)
T2 construct: Pure Protein, LLC (ran the assay)
Assay: biochemical
Format: binding
Conditions: allele A0101; cell-free competition with fluorescently labeled control peptide, fluorescence polarization at 72 hours

Compound	IC50 (nM)
KMEKCSSVF [Cluster 370_3D7]	Non-Binder
VTCGNGIQV [Cluster 336_3D7]	Non-Binder
CC[C@H](C)[C@H](NC(=O)[C@H](CC(=O)O)NC(=O)[C@H](CC(N)=O)NC(=O)[C@H](C)NC(=O)[C@H](Cc1ccc(O)cc1)NC(=O)[C@H](CC(=O)O)NC(=O)[C@H](CC(C)C)NC(=O)[C@@H](N)CCC(=O)O)C(=O)N[C@@H](CCC(=O)O)C(=O)N[C@@H](CCCCN)C(=O)O [Cluster 357_3D7] (H-ELDYANDIEK-OH)	Non-Binder

Same assay, conditions: allele A0101; cell-free competition with fluorescently labeled control peptide, fluorescence polarization at 72 hours; read-out: IC50

Compound	IC50 [µM]
CC[C@H](C)[C@H](NC(=O)[C@H](CC(=O)O)NC(=O)[C@H](CC(N)=O)NC(=O)[C@H](CCC(=O)O)NC(=O)[C@H](Cc1ccc(O)cc1)NC(=O)[C@H](CC(=O)O)NC(=O)[C@H](CC(C)C)NC(=O)[C@@H](N)CCC(N)=O)C(=O)N[C@@H](CCC(=O)O)C(=O)N[C@@H](CCCCN)C(=O)O [Cluster 357_CVX89] (H-QLDYENDIEK-OH)	726

Target: T3, HLA B*0702 (Homo sapiens, UniProt P01889)
T3 construct: Pure Protein, LLC (ran the assay)
Assay: biochemical
Format: binding
Conditions: allele B0702; cell-free competition with fluorescently labeled control peptide, fluorescence polarization at 72 hours

Compound	IC50 (nM)
KPGSANKPKD [Cluster 347_3D7]	Non-Binder
NPNANPNAN [131_3D7 (9)]	Non-Binder
NPNVDPNANP [Cluster 107_3D7]	Non-Binder
KMEKCSSVF [Cluster 370_3D7]	Non-Binder
NPNANPNANP [131_3D7 (10)]	Non-Binder
SPCSVTCGNG [Cluster 332_3D7]	Non-Binder
KPGSADKPKD [347_CVX69 (10)]	Non-Binder

Same assay, conditions: allele B0702; cell-free competition with fluorescently labeled control peptide, fluorescence polarization at 72 hours; read-out: IC50

Compound	IC50 [µM]
CC[C@H](C)[C@H](NC(=O)[C@H](CCCNC(=N)N)NC(=O)[C@@H](NC(=O)[C@@H](N)CCC(N)=O)C(C)C)C(=O)N[C@@H](CCCCN)C(=O)N1CCC[C@H]1C(=O)NCC(=O)N[C@@H](CO)C(=O)N[C@@H](C)C(=O)O [Cluster 343_3D7] (H-QVRIKPGSA-OH)	134
C[C@H](NC(=O)[C@H](CO)NC(=O)CNC(=O)[C@@H]1CCCN1C(=O)[C@@H](N)CCCCN)C(=O)NCC(=O)N[C@@H](CCCCN)C(=O)N[C@@H](CO)C(=O)N[C@@H](CCCCN)C(=O)O [347_CVX36 (9)] (H-KPGSAGKSK-OH)	53.1
